Measured values as given in patent publication EP0626016B1, “[…] […]” (BRITISH TECHNOLOGY GROUP LIMITED, priority 1992, dated 1993).

How the values were obtained:
[1] = molecular target: T1, horseradish peroxidase Type VIA (Armoracia rusticana, UniProt P00433); experiment: Enhanced chemiluminescent assay for peroxide with 4-biphenylboronic acid (Example 8a); assay type: biochemical; settings: 10µl enhancer (1:20 dilution of 1mg/ml)
T1 construct: purchased Sigma Chemical Co
T1 sequence (P00433 31-338): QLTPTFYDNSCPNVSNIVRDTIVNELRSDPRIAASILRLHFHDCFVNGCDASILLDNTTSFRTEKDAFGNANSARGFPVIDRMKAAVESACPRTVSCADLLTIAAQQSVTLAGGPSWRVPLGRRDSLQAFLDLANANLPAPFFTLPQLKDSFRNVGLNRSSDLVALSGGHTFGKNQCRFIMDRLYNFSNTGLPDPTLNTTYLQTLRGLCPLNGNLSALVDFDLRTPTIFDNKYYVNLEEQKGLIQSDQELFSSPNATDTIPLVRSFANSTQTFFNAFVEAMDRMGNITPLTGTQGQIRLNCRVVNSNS
Method: The assay reagent consisted of the following reagents: 10µl 4-biphenylboronic acid (1:20 dilution of a 1mg/ml stock in DMSO), 10µl horseradish peroxidase (1:500,000 dilution of a 1mg/ml stock Type VIA in 0.1 mol/l Tris buffer pH 8.6) and 100µl luminol (0.025 g/l in 0.1 mol/l Tris buffer pH 8.6). These were mixed together and the light emission measured. A 10µl sample of a hydrogen peroxide solution (dilutions of a stock, 31µl 30% w/v hydrogen peroxide/ml in Tris buffer) was added, the contents of the assay tube mixed and the light emission recorded.
From Table 9 it can be seen that there was a dose-dependent increase in light output up to 2.4µmoles of peroxide.

[2] = molecular target: T1, horseradish peroxidase Type VIA; experiment: Enhanced chemiluminescent assay for luminol with 4-biphenylboronic acid (Example 8b); assay type: biochemical; settings: 10µl enhancer (1:20 dilution of 1mg/ml)
Method: The assay reagent consisted of the following reagents: 10µl 4-biphenylboronic acid (1:20 dilution of a 1mg/ml stock in DMSO), 10µl horseradish peroxidase (1:500,000 dilution of a lmg/ml stock Type VIA in 0.1 mol/l Tris buffer pH 8.6) and 100µl hydrogen peroxide solution (31µl 30% w/v hydrogen peroxide diluted in 100ml Tris buffer). These were mixed together and the light emission measured. A 10µl sample of a luminol solution (dilutions of a 0.25g/l in 0.1 mol/l Tris buffer pH 8.6 stock) was added, the contents of the assay tube mixed and the light emission recorded.
From Table 10 it can be seen that there was a dose-dependent increase in light output at all concentrations of luminol tested.

HRP Type VIA [3] = molecular target: T2, HRP Type VIA (Armoracia rusticana, UniProt P00433)
T2 sequence (P00433 31-338): T1 sequence (P00433 31-338)

HRP [4] = molecular target: T3, HRP (Armoracia rusticana, UniProt P00433); experiment: PIBA enhancement of the HRP-luminol-peroxide reaction (Example 7); assay type: biochemical, horseradish; settings: for Signal: Background ratio: at 1 minute
T3 construct: purchased Sigma Chemical Co
T3 sequence (P00433 31-338): T1 sequence (P00433 31-338)
Method: PBBA was added in various concentrations (range 0.05µg to 0.5µg) to a luminol-H2O2 reaction in the presence and absence of HRP. The luminol-hydrogen peroxide reagent was prepared as follows: sodium luminol (12.5mg) was dissolved in 50ml of Tris buffer (0.1mol/l, pH 8.6), and 15.5µl of hydrogen peroxide (30% w/v) was mixed with 0.5ml of Tris buffer (0.lmol/l, pH 8.6). These two solutions were combined and protected from light. The luminol-hydrogen peroxide reagent (100µl of a 1:10 dilution) was added to a cuvette together with either 10µl of HRP Type VI A (HRP, Sigma Chemical Co., 1:50,000 dilution) or as a control 10µl of Tris Buffer (0.1mol/l, pH 8.6), and various amounts of PBBA (Aldrich Chemical Co.), range 0.05µg-0.5µg in 0.1mol/l Tris, pH 8.6). […]
The experiment of Example 1 was repeated using PIBA in place of PBBA. Various dilutions of PIBA (Cookson Chemicals Ltd., Southampton, UK, 1mg/ml stock in DMSO) in Tris buffer were used. […]

HRP Type VIA [5] = molecular target: T2, HRP Type VIA; experiment: Effect of organoboron compounds on the luminol-hydrogen peroxide-HRP chemiluminescent reaction (Example 2); assay type: biochemical, horseradish; design: purchased Sigma Chemical Co; settings: test
Method: The stock solution of HRP Type VIA (1mg/ml) and luminol-hydrogen peroxide reagent were prepared as described previously. Luminol-hydrogen peroxide (100µl, 1:10 dilution) was mixed with either 10µl of HRP (1:50,000 dilution) or, 10µl of Tris buffer (0.1mol/l, pH 8.6). […] A control without any test compound was run in parallel.
The control consisted of buffer in place of the compound under test as an enhancer. […]

HRP [6] = molecular target: T3, HRP; experiment: CPA as enhancer of the luminol-H2O2-HRP reaction, Amerlite microplate reader (Example 9); assay type: biochemical, horseradish
Method: PBBA was added in various concentrations (range 0.05µg to 0.5µg) to a luminol-H2O2 reaction in the presence and absence of HRP. The luminol-hydrogen peroxide reagent was prepared as follows: sodium luminol (12.5mg) was dissolved in 50ml of Tris buffer (0.1mol/l, pH 8.6), and 15.5µl of hydrogen peroxide (30% w/v) was mixed with 0.5ml of Tris buffer (0.lmol/l, pH 8.6). These two solutions were combined and protected from light. The luminol-hydrogen peroxide reagent (100µl of a 1:10 dilution) was added to a cuvette together with either 10µl of HRP Type VI A (HRP, Sigma Chemical Co., 1:50,000 dilution) or as a control 10µl of Tris Buffer (0.1mol/l, pH 8.6), and various amounts of PBBA (Aldrich Chemical Co.), range 0.05µg-0.5µg in 0.1mol/l Tris, pH 8.6). The reagents were mixed and the light emission recorded after 5 minutes on a Berthold Biolumat LB9500C.
The experiment of Example 1 was repeated using CPA in place of PBBA. Various dilutions of CPA (Cookson Chemicals Ltd., Southampton, UK, […] in 1 mg/ml Tris buffer, pH 8.6) were used. […] "Amerlite" is a Registered Trade Mark.

OB(O)c1ccc(-c2ccccc2)cc1 [Compound 1011, 4-biphenylboronic acid]
Light emission at 5 minutes ([1]; Hydrogen peroxide 0 µmoles): 525
Light emission at 5 minutes ([1]; Hydrogen peroxide 0.00024 µmoles): 659
Light emission at 5 minutes ([1]; Hydrogen peroxide 0.0024 µmoles): 1,500
Light emission at 5 minutes ([1]; Hydrogen peroxide 0.024 µmoles): 40,682
Light emission at 5 minutes ([1]; Hydrogen peroxide 0.24 µmoles): 584,638
Light emission at 5 minutes ([1]; Hydrogen peroxide 2.4 µmoles): 620,551
Light emission at 5 minutes ([1]; Hydrogen peroxide 24 µmoles): 339,291
Light emission at 10 minutes ([2]; Luminol 0 µmoles): 54
Light emission at 10 minutes ([2]; Luminol 0.00125 µmoles): 145
Light emission at 10 minutes ([2]; Luminol 0.0125 µmoles): 620
Light emission at 10 minutes ([2]; Luminol 0.125 µmoles): 5,161
Light emission at 10 minutes ([2]; Luminol 1.25 µmoles): 55,873
Light emission at 10 minutes ([2]; Luminol 12.5 µmoles): 358,184
Light emission at 10 minutes ([2]; Luminol 125 µmoles): 834,089
(a) Decrease in background (without HRP with test cpd.) (HRP Type VIA [3]): Y
(b) Increase in signal (with HRP, with test cpd.) (HRP Type VIA [3]): Y
(c) Increase in signal: background ratio (HRP Type VIA [3]): Y (key: Column (c) shows whether there was an increase in the signal:background ratio by over 25% of the control value (Y = yes; N = no)

OB(O)c1ccc(I)cc1 [PIBA, para-iodophenylboronic acid]
Light emission at 1 minute, Background (HRP [4]; PIBA 0.01 µg): 12,862
Light emission at 1 minute, Signal (HRP [4]; PIBA 0.01 µg): 78,419
Signal: Background ratio (HRP [4]; PIBA 0.01 µg): 6.1
Light emission at 1 minute, Background (HRP [4]; PIBA 0.1 µg): 13,221
Light emission at 1 minute, Signal (HRP [4]; PIBA 0.1 µg): 74,487
Signal: Background ratio (HRP [4]; PIBA 0.1 µg): 7.1
Light emission at 1 minute, Background (HRP [4]; PIBA 1 µg): 10,282
Light emission at 1 minute, Signal (HRP [4]; PIBA 1 µg): 324,312
Signal: Background ratio (HRP [4]; PIBA 1 µg): 31.5
Light emission at 1 minute, Background (HRP [4]; PIBA 10 µg): 5,517
Light emission at 1 minute, Signal (HRP [4]; PIBA 10 µg): 540,760
Signal: Background ratio (HRP [4]; PIBA 10 µg): 98
Light emission at 1 minute, Background (HRP [4]; PIBA 20 µg): 3,837
Light emission at 1 minute, Signal (HRP [4]; PIBA 20 µg): 135,065
Signal: Background ratio (HRP [4]; PIBA 20 µg): 35.2

OB(O)c1ccc(Cl)cc1Cl [Compound 5002, 2,4-dichlorophenylboronic acid]
Signal (no HRP) (HRP Type VIA [5]; 5µl of 1mg/ml compound): 16,246
Signal (with HRP) (HRP Type VIA [5]; 5µl of 1mg/ml compound): 128,274
Signal: Background ratio (HRP Type VIA [5]; 5µl of 1mg/ml compound): 7.9

O=C(O)C=Cc1ccc(B(O)O)cc1 [CPA, 4-(2-carboxyethenyl)phenylboronic acid]
Signal (no HRP) (HRP [6]; CPA 0.01 µg): 0.094
Signal (with HRP) (HRP [6]; CPA 0.01 µg): 0.41
Signal: Background ratio (HRP [6]; CPA 0.01 µg): 4.4
Signal (no HRP) (HRP [6]; CPA 0.02 µg): 0.09
Signal (with HRP) (HRP [6]; CPA 0.02 µg): 0.46
Signal: Background ratio (HRP [6]; CPA 0.02 µg): 5.1
Signal (no HRP) (HRP [6]; CPA 0.05 µg): 0.09
Signal (with HRP) (HRP [6]; CPA 0.05 µg): 0.68
Signal: Background ratio (HRP [6]; CPA 0.05 µg): 7.6
Signal (no HRP) (HRP [6]; CPA 0.1 µg): 0.09
Signal (with HRP) (HRP [6]; CPA 0.1 µg): 1.23
Signal: Background ratio (HRP [6]; CPA 0.1 µg): 14.2
Signal (no HRP) (HRP [6]; CPA 0.2 µg): 0.08
Signal (with HRP) (HRP [6]; CPA 0.2 µg): 2.37
Signal: Background ratio (HRP [6]; CPA 0.2 µg): 28.2
Signal (no HRP) (HRP [6]; CPA 0.5 µg): 0.07
Signal (with HRP) (HRP [6]; CPA 0.5 µg): 4.57
Signal: Background ratio (HRP [6]; CPA 0.5 µg): 63.4
Signal (no HRP) (HRP [6]; CPA 1.0 µg): 0.06
Signal (with HRP) (HRP [6]; CPA 1.0 µg): 5.58
Signal: Background ratio (HRP [6]; CPA 1.0 µg): 93.0
Signal (no HRP) (HRP [6]; CPA 10 µg): 0.02
Signal (with HRP) (HRP [6]; CPA 10 µg): 2.49
Signal: Background ratio (HRP [6]; CPA 10 µg): 124.9
Signal (no HRP) (HRP [6]; CPA 20 µg): 0.003
Signal (with HRP) (HRP [6]; CPA 20 µg): 0.88
Signal: Background ratio (HRP [6]; CPA 20 µg): 43.9

OB(O)c1ccccc1 [Compound 5004, phenylboronic acid]
Signal (no HRP) (HRP Type VIA [5]; 5µl of 1mg/ml compound): 5,601
Signal (with HRP) (HRP Type VIA [5]; 5µl of 1mg/ml compound): 54,554
Signal: Background ratio (HRP Type VIA [5]; 5µl of 1mg/ml compound): 9.7

butaneborinic acid [Compound 5005]
Signal (no HRP) (HRP Type VIA [5]; 40µl of 1mg/ml compound): 54,389
Signal (with HRP) (HRP Type VIA [5]; 40µl of 1mg/ml compound): 65,197
Signal: Background ratio (HRP Type VIA [5]; 40µl of 1mg/ml compound): 1.2

C[Si](C)(C)c1ccc(B(O)O)cc1 [Compound 1001, 4-(trimethylsilyl) benzeneboronic acid]
(a) Decrease in background (without HRP with test cpd.) (HRP Type VIA [3]): Y
(b) Increase in signal (with HRP, with test cpd.) (HRP Type VIA [3]): N and Y
(c) Increase in signal: background ratio (HRP Type VIA [3]): Y (key: Column (c) shows whether there was an increase in the signal:background ratio by over 25% of the control value (Y = yes; N = no)
